Laboratory results taken from patent publication US20130017616A1, “Methods For Treating Inflammation” (Vanderbilt University - Center for Technology Transfer and …, priority 2011, published 2013).

What was measured:
RNase [1] = biological target: T1, RNase (Bos taurus, UniProt P61823); test: Measurements of RNase activity after incubation with HOCl, HOBr or PM; type: biochemical; details: for effect on RNase activity: RNase 15 μg/mL incubated with different concentrations of the substance at 37° C. for 2 h
T1 construct: purchased Worthington Biochemical Corporation
T1 sequence (P61823 27-150): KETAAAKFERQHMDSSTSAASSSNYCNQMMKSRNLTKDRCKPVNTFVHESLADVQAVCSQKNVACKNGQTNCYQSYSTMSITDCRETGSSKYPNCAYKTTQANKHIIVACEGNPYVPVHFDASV
Experimental: FIG. 1. […] RNase (15 μg/mL) was incubated alone or with different concentrations of HOCl, HOBr or PM at 37° C. for 2 h. Enzymatic activity was determined as described under Experimental Procedures.
Measurements of RNase Activity—RNase activity was determined by measuring the formation of acid-soluble oligonucleotide as described by Kalnitsky et al, with some modifications previously described by Voziyan et al. For the assay, 100 μL of 3 μg/mL RNase in 100 mM sodium acetate, pH 5.0, was mixed with 100 μL of 1% yeast RNA in the same buffer. After the incubation at 37° C. for 5 min, the reaction was stopped by the addition of 100 μL of an ice-cold solution of 0.8% lanthanum nitrate in 18% perchloric acid. The incubations were kept on ice for 5 min to ensure complete precipitation of undigested RNA and then centrifuged at 12000 g for 10 min. An aliquot of the supernatant (20 μL) was diluted to 1 mL with distilled water, the amount of digested (solubilized) RNA was determined by measuring the absorbance at 260 nm. The activity of RNase incubated either alone or with PM or an amino acid substitute at 37° C. was monitored separately and used as a reference for each incubation time.

EHS collagen IV = test: Chlorination of type IV collagen by HOCl, N-chloramine assay; type: biochemical, murine; details: HOCl with equimolar PM, 1 h
Experimental: N-Chloramine Assay/ TMB Assay—The presence of N-chloramines were determined by the method of Witko et al. [3] and Dypbukt et al. [4]. The former method is based on the colorimetric measurement of triiodide ions formed by the oxidation of potassium iodide (KI) in solution. Chloroamine-T, a commercially available source of N-chloramine, was used to calibrate the assay. 100 mM chloramine-T solution was made fresh in distilled H2O. The 100 mM chloramines-T was diluted to final concentrations ranging from 20 to 100 μM immediately before use. The direct oxidation of Kl by NaOCl was also determined and these values were subtracted as background from the corresponding treated samples. The resulting difference represented the amount of N-chloramine present in each sample. In the latter method the developing reagent was composed of 2 mM TMB in 400 mM acetate buffer, pH 5.4, containing 10% dimethlyforamide and 100 μM sodium iodide. This solution was prepared by dissolving TMB in 100% DMF, diluting with acetate buffer to get the desired final concentration of TMB, and then adding sodium iodide. When the developing reagent was mixed with the solutions of chloramines, the final concentration of TMB was always at least 10 times that of the concentration of chloramines. This prevented further oxidation of the blue product. […]

[2] = test system: integrin α1β1 binding to collagen IV; test: Modification of collagen IV and integrin binding assay (solid phase); set-up: species or system Human; details: 0.1 mM HOCl or HOBr with 0.1 mM PM, 1 h; integrin 1 μg/mL, 2 h at 30° C.
Experimental: FIG. 6B. EHS Collagen IV was coated onto 96-well plate overnight at 4° C. Collagen IV was incubated with 0.1 mM HOCl or HOBr either with or without 0.1 mM PM for 1 h at 37° C. Collagen IV was then incubated with 1 μg/mL of integrin α1β1 for 2 h at 30° C. Integrin binding was detected in solid phase binding assay using integrin α1β1 antibody. The bars represent background-subtracted […] binding±SD (n=4). *P<0.05, control vs. HOCl or HOBr; **P<0.05, HOCl or HOBr vs. HOCl+PM or HOBr+PM.
Modification of Collagen IV and Integrin Binding Assay—20 μg/mL of type IV collagen in 20 mM sodium phosphate buffer, 7.5, was immobilized on 96 well plates at 4° C. overnight. Nonspecific binding sites were blocked with 1% BSA in TBS for 2 hr at 30° C. as previously described. Wells were washed five times with either TBS or 100 mM sodium phosphate, pH 7.5, before being incubated in the same buffer with or without HOCl/HOBr alone or HOCl/l HOBr plus PM. […] After extensive washing, the bound antibodies were detected using alkaline phosphatase-conjugated anti-mouse IgG antibodies. p-Nitrophenyl phosphate substrate (Sigma) was added to the wells, and absorbance was read at 410 nm. Readings from the samples containing EDTA were subtracted from all the data to obtain the baseline corrected magnesium dependent binding.

RNase [3] = test: LC-MS/MS analysis of RNase modifications (halogenation of Tyr-92 and Tyr-97); type: biochemical; details: RNase with HOCl or HOBr, with or without PM
Experimental: FIG. 3A. Modification of functionally important chlorinated Tyr species (Y-92 and Y-97) in RNase by HOCl and protection by PM. *P<0.05, control vs. HOCl (n=3); **P<0.05, HOCl vs. HOCl+PM (n=3).
FIG. 3B. Modification of functionally important chlorinated Tyr species (Y-92 and Y-97) in RNase by HOBr and protection by PM. *P<0.05, control vs. HOBr; **P<0.05, HOBr vs. HOBr+PM.
LC-MS/MS analysis of RNase modifications—The site-specific modifications in RNase were analyzed by tandem mass spectrometry. The samples were prepared using the spin filter protocol for proteomic analysis. RNase samples were digested either with trypsin. The data-dependent scanning was performed using a LTQ Orbitrap^TM (Thermo Fischer Scientific, San Jose, Calif.) mass spectrometer equipped with an Eksigent AS1 autosampler and an Eksigent 1D+HPLC pump attached directly to the instrument's nanospray source. The peptides were separated on a capillary tip, 100 μm×18 cm, packed with C18 resin (Jupiter C18, 3 μm, 300 Å, Phenomenex, Torrance, Calif.) using an inline vented trapping column that was 100 μm×6 cm. […]
The data generated from the data-dependent LC-MS/MS experiments were analyzed using Sequest. […] The peak containing the peptide of interest was extracted from the chromatogram and the area of the peak was determined using Xcalibur™ software. […]

Structure (SMILES)	effect on RNase activity (RNase [1])	chlorination of collagen IV by hypochlorous acid (protein chloramine content) (EHS collagen IV)	binding of integrin α1β1 to collagen IV in the presence of HOCl or HOBr [2]	halogenation of Tyr-92 and Tyr-97 residues in RNase (RNase [3])	protection of RNase enzymatic activity against hypohalous acids (RNase [1]; RNase with HOCl or HOBr plus PM)
OBr [HOBr, hypobromous acid]	inhibit RNase activity	–	–	–	–
OCl [HOCl, hypochlorous acid]	inhibit RNase activity	–	–	–	–
Cc1ncc(CO)c(CN)c1O [PM, Pyridoxamine]	no effect on activity	significantly inhibited chlorination	protected binding	inhibited halogenation	protected enzymatic activity
